Assay results as given in patent US10808007B2, “Desacetoxytubulysin H and analogs thereof” (WILLIAM MARSH RICE UNIVERSITY, priority 2015, dated 2020).
Like-named read-outs stand apart in the source and are kept apart here.

Tests used:
Assay type in all cases: cell-based
[1] = test system: HEK 293T (human embryonic kidney cells); assay: Cytotoxic assay (CellTiter-Glo, 72 h), HEK 293T; settings: Homo sapiens, HEK-293T, read-out: IC50 HEK 293T
[2] = test system: MES SA (uterine sarcoma cells); assay: Cytotoxic assay (CellTiter-Glo, 72 h), MES SA; settings: Homo sapiens, MES-SA, read-out: IC50 MES SA
[3] = test system: NCI-60 human cancer cell line panel; assay: NCI-60 one-dose test; settings: one-dose test (10 μM), NCI-60 panel
Description: (§1) A number of the synthesized compounds (i.e. Tb1-Tb23) were evaluated for their activity against a variety of cancer cell lines, namely the NCI-60 human cancer cell line panel representing leukemia, melanoma, lung, colon, brain, ovary, breast, prostate and kidney types of cancer through the In Vitro Cell Line Screening Project (IVCLSP) of the National Cancer Institute (NCI), and a summary of the results is shown in Table 1. […] As there was interest in the activity in certain other cell lines, these and the remaining compounds (Tb1-Tb41, PTb-D42 and PTb-D43) were subjected to further testing against MES SA (uterine sarcoma cells), MES SA DX (multidrug resistant uterine sarcoma cells), and HEK 293T (human embryonic kidney cells). […] Tubulysins are known to be substrates for Pgp pumps (Xiangming, et al., 2013; Kaur, et al., 2006; Szakacs, et al., 2006) as supported by the observed low activities of all tubulysins tested except Tb28, Tb32 and Tb33.

[4] = test system: MES SA DX (multidrug resistant uterine sarcoma cells); assay: Cytotoxic assay (CellTiter-Glo, 72 h), MES SA DX; settings: Homo sapiens
colon cancer cell lines = assay: NCI-60 cytotoxicity, colon cancer; settings: Homo sapiens; NCI-60, selected value
Description: as §1

[5] = test system: non-small cell lung cancer cell lines; assay: NCI-60 cytotoxicity, non-small cell lung cancer; settings: Homo sapiens; NCI-60, selected value
Description: as §1

[6] = test system: ovarian cancer cell lines; assay: NCI-60 cytotoxicity, ovarian cancer; settings: Homo sapiens; NCI-60, selected value
Description: as §1

[7] = test system: leukemia cancer cell lines; assay: NCI-60 cytotoxicity, leukemia; settings: Homo sapiens; NCI-60, selected value
Description: as §1

CNS cancer cell lines = assay: NCI-60 cytotoxicity, CNS cancer; settings: Homo sapiens; NCI-60, selected value
Description: as §1

[8] = test system: prostate cancer cell lines; assay: NCI-60 cytotoxicity, prostate cancer; settings: Homo sapiens; NCI-60, selected value
Description: as §1

renal cancer cell lines = assay: NCI-60 cytotoxicity, renal cancer; settings: Homo sapiens; NCI-60, selected value
Description: as §1

breast cancer cell lines = assay: NCI-60 cytotoxicity, breast cancer; settings: Homo sapiens; NCI-60, selected value
Description: as §1

melanoma cell lines = assay: NCI-60 cytotoxicity, melanoma; settings: Homo sapiens; NCI-60, selected value
Description: as §1

SMILES	IC50 ([1]; 72 h)	IC50 ([2]; 72 h)	one dose, mean growth % [3]	IC50 [4]	GI50 (colon cancer cell lines)	GI50 [5]	GI50 [6]	GI50 [7]	GI50 (CNS cancer cell lines)	GI50 [8]	GI50 (renal cancer cell lines)	GI50 (breast cancer cell lines)	GI50 (melanoma cell lines)	IC50 [1]	IC50 [2]
CCC(C)[C@H](NC(=O)c1ccccn1)C(=O)N(C)[C@H](C[C@@H](OC(C)=O)c1nc(C(=O)NC23CC(C(=O)OC)(C2)C3)cs1)C(C)C (stereo in doubt) [Tb15, Methyl 3-(2-((1R,3R)-1-acetoxy-3-((2S,3S)—N,3-dimethyl-2-(picolinamido)pentanamido)-4-methyl-pentyl)thiazole-4-carboxamido)bicyclo[1.1.1]pentane-1-carboxylate]	> 50 nM	> 50 nM	94.38%	> 50 nM	–	–	–	–	–	–	–	–	–	–	–
CC[C@@H](C)[C@H](NC(=O)[C@H]1CCCCN1C)C(=O)N(C)[C@H](C(=O)NC12C3C4C1C1C2C3C41C(=O)N[C@@H](Cc1ccccc1)C[C@H](C)C(=O)OC)C(C)C (stereo partly drawn) [Tb17, Methyl (2S,4R)-4-(4-((S)-2-((2S,3S)—N,3-dimethyl-2-((R)-1-methylpiperidine-2-carboxamido)penta-namido)-3-methylbutanamido)cubane-1-carboxamido)-2-methyl-5-phenylpentanoate]	> 50 nM	> 50 nM	97.37%	> 50 nM	–	–	–	–	–	–	–	–	–	–	–
CCC(C)[C@H](NC(=O)CN(C)C)C(=O)N(C)[C@H](C(=O)NC12C3C4C1C1C2C3C41C(=O)N[C@@H](Cc1ccccc1)C[C@H](C)C(=O)OC)C(C)C (stereo in doubt) [Tb18, Methyl (2S,4R)-4-(4-((S)-2-((2S,3S)-2-(2-(dimethylamino)acetamido)-N,3-dimethylpentanamido)-3-methylbutanamido)cubane-1-carboxamido)-2-methyl-5-phenylpentanoate]	> 50 nM	> 50 nM	98.48%	> 50 nM	–	–	–	–	–	–	–	–	–	–	–
CCC(C)[C@H](NC(=O)c1ccccn1)C(=O)N(C)[C@H](C[C@@H](OC(C)=O)c1nc(C(=O)NC23C4C5C2C2C3C4C52C(=O)OC)cs1)C(C)C (stereo in doubt) [Tb12, Methyl 4-(2-((1R,3R)-1-acetoxy-3-((2S,3S)—N,3-dimethyl-2-(picolinamido)pentanamido)-4-methyl-pentyl)thiazole-4-carboxamido)cubane-1-carboxylate]	> 50 nM	> 50 nM	84.90%	> 50 nM	–	–	–	–	–	–	–	–	–	–	–
COC(=O)[C@@H](C)C[C@H](Cc1ccccc1)NC(=O)c1csc([C@@H](C[C@H](C(C)C)N(C)C(=O)[C@@H](NC(=O)C23CC(NC(C)=O)(C2)C3)C2CC2)OC(C)=O)n1 [Tb22, Methyl (2S,4R)-4-(2-((1R,3R)-3-((S)-2-(3-acetamidobicyclo[1.1.1]pentane-1-carboxamido)-2-cyclopropyl-N-methylacetamido)-1-acetoxy-4-methylpentyl)thiazole-4-carboxamido)-2-methyl-5-phenylpentanoate]	> 50 nM	> 50 nM	49.38%	> 50 nM	–	–	–	–	–	–	–	–	–	–	–
CCC(C)[C@H](NC(=O)[C@H]1CCCCN1C)C(=O)N(C)[C@H](C(=O)NC12CC(C(=O)N[C@@H](Cc3ccccc3)C[C@H](C)C(=O)OC)(C1)C2)C(C)C (stereo in doubt) [Tb19, Methyl (2S,4R)-4-(3-((S)-2-((2S,3S)—N,3-dimethyl-2-((R)-1-methylpiperidine-2 carboxamido)pentan amido)-3-methylbutanamido)bicyclo[1.1.1]pentane-1-carboxamido)-2-methyl-5-phenylpentanoate]	> 50 nM	> 50 nM	100.82%	> 50 nM	–	–	–	–	–	–	–	–	–	–	–
CC[C@H](C)[C@H](NC(=O)C12CC(NC)(C1)C2)C(=O)N(C)[C@H](C[C@@H](OC(C)=O)c1nc(C(=O)N[C@@H](Cc2ccccc2)C[C@H](C)C(=O)OC)cs1)C(C)C [Tb8, Methyl(2S,4R)-4-(2-((1R,3R)-1-acetoxy-3-((2S,3S)—N,3-dimethyl-2-(3-(methylamino)-bicyclo[1.1.1]pentane-1-carboxamido)pentanamido)-4-methylpentyl)thiazole-4-carboxamido)-2-methyl, 5-phenyl-pentanoate-phenylpentanoate]	> 50 nM	> 50 nM	–	> 50 nM	121 nM	96.7 nM	75 nM	9.62 nM	105 nM	125 nM	164 nM	52.1 nM	33.3 nM	–	–
CC[C@H](C)[C@H](NC(=O)C12C3C4C1C1C2C3C41NC(C)=O)C(=O)N(C)[C@H](C[C@@H](OC(C)=O)c1nc(C(=O)N[C@@H](Cc2ccccc2)C[C@H](C)C(=O)OC)cs1)C(C)C (stereo partly drawn) [Tb9, Methyl(2S,4R)-4-(2-((R,3R)-3-((2S,3S)-2-(4-acetamidocubane-1-carboxamido)-N,3-dimethylpentan amido)-1-acetoxy-4-methylpentyl)thiazole-4-carboxamido)-2-methyl-5-phenylpentanoate]	> 50 nM	> 50 nM	–	> 50 nM	331 nM	83.6 nM	61 nM	24.2 nM	246 nM	459 nM	238 nM	53.2 nM	46.6 nM	–	–
CC[C@H](C)[C@H](NC(=O)c1ccccn1)C(=O)N(C)[C@H](C[C@@H](OC(C)=O)c1nc(C(=O)N[C@@H](Cc2ccccc2)C[C@H](C)C(=O)OC)cs1)C(C)C [Tb3, (2S,4R)-Methyl 4-(2-((1R,3R)-1-acetoxy-3-((2S,3S)—N,3-dimethyl-2-(picolinamido)pentanamido)-4-methylpentyl)thi-azole-4-carboxamido)-2-methyl-5-phenylpentanoate]	> 50 nM	> 50 nM	–	> 50 nM	> 1000 nM	> 1000 nM	> 1000 nM	> 1000 nM	> 1000 nM	> 1000 nM	> 1000 nM	> 1000 nM	> 1000 nM	–	–
CC[C@H](C)[C@H](NC(=O)[C@H]1CCCCN1C)C(=O)N(C)[C@H](C[C@@H](OC(C)=O)c1nc(C(=O)N[C@@H](Cc2ccccc2)C[C@H](C)C(=O)O)cs1)C(C)C [Tb1, N^14-desacetoxytubulysin H]	0.02 nM	0.34 nM	–	> 10 nM	0.269 nM	0.347 nM	0.234 nM	0.264 nM	0.305 nM	0.339 nM	0.548 nM	0.147 nM	0.074 nM	0.02 nM	0.34 nM
CC[C@H](C)[C@H](NC(=O)C12C3C4C1C1C2C3C41NC)C(=O)N(C)[C@H](C[C@@H](OC(C)=O)c1nc(C(=O)N[C@@H](Cc2ccccc2)C[C@H](C)C(=O)OC)cs1)C(C)C (stereo partly drawn) [Tb10, Methyl(2S,4R)-4-(2-((1R,3R)-1-acetoxy-3-((2S,3S)—N,3-dimethyl-2-(4-(methylamino)cubane-1-carboxamido)pentanamido)-4-methylpentyl)thiazole-4-carboxamido)-2-methyl-5-phenylpentanoate]	> 50 nM	> 50 nM	–	> 50 nM	355 nM	60.2 nM	92.6 nM	61.3 nM	271 nM	500 nM	413 nM	66.4 nM	49.5 nM	–	–
